Where two headings read alike, the source gives them in different places.

The nature of series [1]: Caco-2 permeability assay with pH 7.4 buffer or human plasma in both chambers. As to conditions: human; for Papp B→A: Caco-2, pH 7.4, Papp B-A; for efflux ratio: Caco-2, pH 7.4, Efflux ratio (B-A/A-B).
For series [2], the system named is Caco-2 cell monolayer. The description is as above. As to conditions: for Mass balance: both directions (where assessed) and both media.
Series [3] has as its system P-gp. Described as above. The conditions noted are these: human, Caco-2, pH 7.4, with verapamil 100 µM, Papp B-A, + 100 μM verapamil.
A short description of series [4]: in vitro. As to conditions: human; for Papp A→B: Caco-2, pH 7.4, Papp A-B.
Series [5] in a line: Human plasma protein binding (ultracentrifugation or rapid equilibrium dialysis). The format is in vitro ADME. As to conditions: for fraction unbound: pH 7.4, neat human plasma, 37°C, concentration comparable to Caco-2 assay, read-out: fu (fraction unbound in plasma). How it is done:
Binding was assessed using one of two methods: ultracentrifugation ([31]) using neat human plasma or rapid equilibrium dialysis (RED) using either neat or diluted plasma. […] To allow analysis with a single calibration curve, the total plasma and protein-free supernatant samples were ‘matrix-matched’ by taking aliquots of protein-free supernatant samples and adding to fresh tubes containing an equal volume of blank plasma, or taking aliquots of the total plasma samples and adding to fresh tubes containing an equal volume of Dulbecco’s phosphate-buffered saline (DPBS). In this way, the final composition of both the protein-free supernatant samples and the total plasma samples were ‘matched’ prior to the analysis against a common calibration curve prepared in a 1:1 mixture of human plasma and DPBS. All samples were then stored frozen at −80°C until analysis.
The holding plate was then placed on a plate shaker (set at 800 rpm; ThermoMixer C, Eppendorf) and maintained at 37°C under a 2% CO2 atmosphere. The dialysis was conducted for 6 h, assuming steady state was achieved by the end of this period ([32]). Samples were then removed from both the donor and dialysate chambers of each RED insert. […] Samples were matrix matched as described above (but using PBS buffer instead of DPBS) and stored at −80°C until analysis.
For the more lipophilic compounds with potential for very high binding, the RED method was used with diluted plasma to increase the chance of detecting concentrations in the dialysate samples. Diluted human plasma (10% v/v in pH 7.4 phosphate buffered saline) was spiked with each compound (at 10% of the concentration used for the Caco-2 experiment with neat plasma) and binding conducted as described above. The binding in neat plasma was then calculated by correcting for the dilution as described below.
For binding measurements in neat plasma by ultracentrifugation, the fraction unbound (fu) was calculated from the ratio of the average unbound concentration in protein free supernate (Cunbound) to the average total concentration in non-centrifuged plasma (Ctotal). The standard deviation (SD) for the fu value was calculated using the propagation of errors approach as described previously ([33]). For binding measurements using the RED method in neat plasma, fu was calculated from the ratio of the dialysate to total plasma concentration for each dialysis unit and the mean and SD calculated for replicate units (n = 3).
For RED binding assessments using 10% plasma, the fu − diluted for individual dialysis units was calculated in the same way as described above.

The conditions of series [6]: cited from earlier work.
Series [7] concerns Caco-2 cell monolayer.
Setting [8] is: Caco-2, pH 7.4, Papp A-B, buffer pH 7.4 in both chambers.
Setting [9] is: Caco-2, pH 7.4, Papp A-B, human plasma in both chambers, corrected for fu in donor.
The mark [10] stands for this setting: buffer (HBSS/HEPES pH 7.4) in both chambers.
Setting [11] is: human, values from the literature.

In the case of `C[C@H]1O[C@@H](O[C@H]2[C@@H](O)C[C@H](O[C@H]3[C@@H](O)C[C@H](O[C@H]4CC[C@@]5(C)[C@H](CC[C@@H]6[C@@H]5C[C@@H](O)[C@]5(C)[C@@H](C7=CC(=O)OC7)CC[C@]65O)C4)O[C@@H]3C)O[C@@H]2C)C[C@H](O)[C@@H]1O` [^3H-Digoxin, [^3H(G)]-digoxin], the Papp A→B was 2.7 ± 0.21 ×10⁻⁶ cm/s in series [1] (setting [8]); 4.6 ± 0.46 ×10⁻⁶ cm/s in series [1] (Caco-2, pH 7.4, with verapamil 100 µM, Papp A-B, buffer, + 100 μM verapamil); 6.2 ± 1 ×10⁻⁶ cm/s in series [1] (Caco-2, pH 7.4, with verapamil 100 µM, Papp A-B, plasma, + 100 μM verapamil, corrected for fu); 4.7 ± 0.15 ×10⁻⁶ cm/s in series [4]. For the same compound, the Papp B→A in series [1] (buffer pH 7.4 in both chambers) came out at 18 ± 0.58 ×10⁻⁶ cm/s; in series [3] (buffer) it was 5.8 ± 0.53 ×10⁻⁶ cm/s; in series [3] (plasma, corrected for fu), 7.4 ± 0.49 ×10⁻⁶ cm/s; in series [4] (Caco-2, pH 7.4, Papp B-A), 26 ± 1.5 ×10⁻⁶ cm/s. Further, the “Mass balance B-A” value in series [2] (buffer pH 7.4 in both chambers) came to 100 ± 0%; in series [2] (buffer, + 100 μM verapamil), 100 ± 0.58%; in series [2] (human plasma in both chambers), 100 ± 5.8%; in series [2] (plasma, + 100 μM verapamil), 99 ± 0.58%. Further, the “Mass balance A-B” value in series [2] (buffer, + 100 μM verapamil (P-gp inhibitor)) was found to be 99 ± 0.58%; in series [2] (plasma, + 100 μM verapamil), 96 ± 2.1%. Further, the fraction unbound in series [5] was determined as 0.61.

As to lucifer yellow, the “Human FA (fraction absorbed)” value in series [6] (in vivo) is on record as 0%. In addition, the “fu (fraction unbound in plasma)” value in series [5] (human, plasma) amounted to 0.51. Moreover, in series [7] (Caco-2), the Mass balance was over 80%, the “Mass balance A-B” value is on record as 98 ± 4.7% and the “Papp A-B” value is recorded as 0.17 ± 0.069 10^−6 cm/s. For the same compound, in series [7] (Caco-2, pH 7.4), the “Mass balance A-B” value was found to be 86 ± 6.7% and the “Papp A-B” value is listed as 0.21 ± 0.085 10^−6 cm/s.

Regarding `CC(=O)Nc1ccc(O)cc1` [Paracetamol, paracetamol], the apparent permeability from apical to basolateral (Papp A→B) in series [1] (setting [8]) was found to be 32 ± 2.9 ×10⁻⁶ cm/s; in series [1] (setting [9]), 37 ± 4 ×10⁻⁶ cm/s. The “Mass balance A-B” value was found to be 92 ± 3.8% in series [2] (setting [10]) and 92 ± 0.58% in series [2] (human plasma in both chambers). Also, the “Human FA (fraction absorbed)” value in series [6] (setting [11]) is 90%. Also, the fraction unbound in series [5] came out at 0.86.

As for `OC[C@@H](O)[C@@H](O)[C@H](O)[C@H](O)CO` [^14C-Mannitol, D-[1-^14C]-mannitol], the efflux ratio was determined as 1.9 ± 0.35 in series [1] (buffer pH 7.4 in both chambers) and 1.4 ± 0.37 in series [1] (human plasma in both chambers). In addition, the Papp A→B turned out to be 0.29 ± 0.051 ×10⁻⁶ cm/s in series [1] (setting [8]) and 0.31 ± 0.081 ×10⁻⁶ cm/s in series [1] (setting [9]). For the same compound, the Papp B→A in series [1] (buffer pH 7.4 in both chambers) stood at 0.56 ± 0.026 ×10⁻⁶ cm/s; in series [1] (human plasma in both chambers, corrected for fu in donor) it was 0.43 ± 0.021 ×10⁻⁶ cm/s. For the same compound, the Mass balance in series [2] was over 80%. For the same compound, the “Mass balance A-B” value in series [2] (setting [10]) came to 99 ± 2.3%; in series [2] (human plasma in both chambers) it was 96 ± 4.0%. The entries for the “Mass balance B-A” value in series [2] (buffer pH 7.4 in both chambers) and in series [2] (human plasma in both chambers) were 99 ± 1.7% and 97 ± 5.2%, respectively. The “Human FA (fraction absorbed)” value in series [6] (setting [11]) is given as 26%. Further, the fraction unbound in series [5] was 0.83.

For `CN/C(=N/CCSCc1nc[nH]c1C)NC#N` [Cimetidine, cimetidine], the Papp A→B in series [1] (setting [8]) is 1.7 ± 0.45 ×10⁻⁶ cm/s; in series [4], 1.9 ± 0.26 ×10⁻⁶ cm/s. Also, in series [2], the Mass balance is over 80%. Moreover, the “Human FA (fraction absorbed)” value in series [6] (setting [11]) is on record as 64%. In series [5], the fraction unbound was 0.76.

Values taken from PMC6156755, “Using Human Plasma as an Assay Medium in Caco-2 Studies Improves Mass Balance for Lipophilic Compounds” (Pharmaceutical Research, 2018).
